Test system: NMNAT2
Assay: NMNAT2-Hibit nano-luciferase activity in stably transfected U87MG cells, various concentrations, 24 hours
Format: cell-based
Details: U87MG cells stably transfected with NMNAT2-Hibit luc plasmid
Procedure: Selected compounds were tested in vitro. U87MG cells were stably transfected with NMNAT2-Hibit luc plasmid. Cells were treated with a test compound at various concentrations for 24 hours. Cells were then collected and assayed for nano-luciferase activity.

SMILES	E: compound efficacy for NMNAT2 activation (concentration giving >25% increase in NMNAT2 luciferase activity)
COc1cccc(CNC(=O)C2CCc3c(c4ccccc4n3CC(=O)NCc3ccco3)C2)c1 (stereo not shown) [BC20241]	++ (“++” >25% increase in NMNAT2 luciferase activity at >1 μM ≤25 μM.)
O=C(NCc1ccco1)N1CCc2c(c3ccccc3n2Cc2cccc(F)c2)C1 [BC20308]	++ (“++” >25% increase in NMNAT2 luciferase activity at >1 μM ≤25 μM.)
Cc1ccccc1CNC(=O)C1CCCc2c1c1ccccc1n2Cc1cccc(F)c1 (stereo not shown) [BC20372]	+ (“+” >25% increase in NMNAT2 luciferase activity at >25 μM.)
Cc1cccc(NC(=O)CCCc2cn(Cc3ccccc3F)c3ccccc23)c1C [BC20134]	++ (“++” >25% increase in NMNAT2 luciferase activity at >1 μM ≤25 μM.)
O=C1c2cccc3c2c(cn3Cc2cccc(F)c2)CCN1Cc1ccncc1 [BC20277]	+ (“+” >25% increase in NMNAT2 luciferase activity at >25 μM.)
COc1ccccc1CNC(=O)CCc1c(C(F)F)n(Cc2cc(C)ccc2C)c2ccccc12 [BC20397]	+ (“+” >25% increase in NMNAT2 luciferase activity at >25 μM.)
COc1ccc(CCN2CCc3cn(Cc4cccc(F)c4)c4cccc(c34)C2=O)cc1 [BC20278]	+ (“+” >25% increase in NMNAT2 luciferase activity at >25 μM.)
COc1ccccc1CNC(=O)[C@H]1C[C@@H]1c1cn(Cc2cc(C)ccc2C)c2ccccc12 (racemic) [BC20349]	+ (“+” >25% increase in NMNAT2 luciferase activity at >25 μM.)
Cc1cccc(CNC(=O)C2CCc3c(c4ccccc4n3Cc3ccncc3)C2)c1 (stereo not shown) [BC20281]	+ (“+” >25% increase in NMNAT2 luciferase activity at >25 μM.)
Cc1ccc(C)c(Cn2cc([C@H]3C[C@@H]3C(=O)NCc3ccncc3)c3ccccc32)c1 (racemic) [BC20352]	+ (“+” >25% increase in NMNAT2 luciferase activity at >25 μM.)
Cc1ccc(Cn2cc([C@H]3C[C@@H]3C(=O)NCc3cccnc3)c3ccccc32)cc1 (racemic) [BC20301]	+ (“+” >25% increase in NMNAT2 luciferase activity at >25 μM.)
Cc1ccc(CNC(=O)CCCc2cn(Cc3cccc(F)c3)c3ccccc23)o1 [BC20136]	++ (“++” >25% increase in NMNAT2 luciferase activity at >1 μM ≤25 μM.)
COc1cccc(CNC(=O)c2ccc3c(c2)c(C)c(C)n3Cc2ccccc2C)c1 [BC20205]	+ (“+” >25% increase in NMNAT2 luciferase activity at >25 μM.)
Cc1ccc(C)c(Cn2cc([C@H]3C[C@@H]3C(=O)NCc3ccccn3)c3ccccc32)c1 (racemic) [BC20366]	+ (“+” >25% increase in NMNAT2 luciferase activity at >25 μM.)
COc1ccccc1CNC(=O)Cn1c2c(c3ccccc31)CC(C(=O)NCc1ccco1)CC2 (stereo not shown) [BC20289]	+ (“+” >25% increase in NMNAT2 luciferase activity at >25 μM.)
Cc1c(C)n(Cc2cccc(F)c2)c2ccc(C(=O)NCc3cccc(F)c3)cc12 [BC20112]	+++ (“+++” >25% increase in NMNAT2 luciferase activity at ≤1 μM.)
O=C(CCCc1cn(Cc2ccccc2F)c2ccccc12)NCc1cccnc1 [BC20132]	++ (“++” >25% increase in NMNAT2 luciferase activity at >1 μM ≤25 μM.)
COc1cccc(CNC(=O)c2ccc3c(c2)c(C)c(C)n3Cc2cccc(F)c2)c1 [BC20116]	++ (“++” >25% increase in NMNAT2 luciferase activity at >1 μM ≤25 μM.)
COc1ccc(CCN2CCc3cn(Cc4cc(C)ccc4C)c4cccc(c34)C2=O)cc1 [BC20272]	+ (“+” >25% increase in NMNAT2 luciferase activity at >25 μM.)

— US20220169632A1, “METHODS AND MATERIALS FOR INCREASING OR MAINTAINING NICOTINAMIDE MONONUCLEOTIDE ADENYLYL TRANSFERASE-2 (NMNAT2) POLYPEPTIDE LEVELS” (University of Pittsburgh - Of the Commonwealth System of …, priority 2019, published 2022)
